# Results taken from article PMC5904360, “Soluble N-Ethylmaleimide-Sensitive Factor Attachment Protein Receptor-Derived Peptides for Regulation of Mast Cell Degranulation” (Frontiers in Immunology, 2018).
# Legend:
# [1] = biological target: T1, SN23-Syn4-Vp2 SNARE complex (Rattus norvegicus, UniProt O70377+P63045+Q08850); test: SNARE-driven membrane fusion (total lipid mixing) assay with proteoliposomes; format: biochemical; conditions: for inhibition of membrane fusion (lipid mixing): inhibitor applied to T-vesicles, T:V 9:1, 37°C, NBD dequenching, Vp2S/Vp8S at 10 µM, three independent experiments (Figure 3B-D); for inhibition of membrane fusion, peptide added after preincubation: peptide added after preincubation of T- and V-liposomes at 4°C overnight (partially zippered SNAREs) (Figure 4A); for inhibition of membrane fusion, peptide added before preincubation: peptide added before preincubation of T- and V-liposomes at 4°C overnight (Figure 4A)
# T1 construct: Syn4 (amino acids 1–298); SNAP-23 (amino acids 1–210); full-length VAMP2 (VpF, amino acids 1–116); GST (N, cleaved yes); made in house; host or cells: Escherichia coli Rosetta(DE3)pLysS
# T1 sequence (P63045 whole entry, one chain of several, the tested form may be a part): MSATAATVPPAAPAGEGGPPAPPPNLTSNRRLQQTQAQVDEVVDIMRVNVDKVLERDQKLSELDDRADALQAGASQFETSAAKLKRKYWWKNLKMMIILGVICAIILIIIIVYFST
# Description: Total RNA was obtained from RBL-2H3 cells using TRIzol® Reagent (#15596026, Invitrogen, Carlsbad, CA, USA) and served as a template for cDNA synthesis with M-MLV reverse transcriptase (M1705, Promega, Madison, WI, USA) according to the manufacturer’s protocol. The cDNAs amplified for rat Syn4, SNAP-23, VAMP2, VAMP4, VAMP7, and VAMP8 using each primer pair ([4]), were cloned into the pGEX-4T 1 vector. The mast cell SNARE proteins [Syn4 (amino acids 1–298), SNAP-23 (amino acids 1–210), full-length VAMP2 (VpF, amino acids 1–116), VAMP4 (amino acids 1–141), and VAMP8 (amino acids 1–100)] were expressed in Escherichia coli Rosetta(DE3)pLysS (#70956, Novagen, Darmstadt, Germany) and purified as glutathione-S-transferase-tagged fusion proteins as reported previously ([8]).
# To prepare the unilamellar liposomes, a 50-mM lipid mixture of palmitoyl-2-oleoylphosphatidylcholine (POPC) (#850457, Avanti Polar Lipids, Alabaster, AL, USA):1,2-dioleoyl-phosphatidylserine (DOPS) (#840035, Avanti Polar Lipids) at 65:35 mol% was dried in a glass tube under a gentle stream of nitrogen gas and then exposed to a vacuum overnight. The resultant lipid film was resuspended in dialysis buffer (25 mM HEPES and 100 mM KCl, pH 7.4) by vortexing, followed by an extrusion step with polycarbonate membrane filters having a pore size of 100 nm (#610005, Avanti Polar Lipids). To prepare proteoliposomes, binary T-SNAREs, which were pre-formed by mixing Syn4 and SNAP-23 at room temperature for 60 min, were incubated with 50 mM unilamellar liposomes for 15 min at the same temperature, resulting in a 50:1 lipid/protein molar ratio ([9]).
# For the preparation of V-SNARE proteoliposomes, a 10-mM premixed lipid solution [POPC:DOPS:N-(7-nitro-2-1,3-benzoxadiazol-4-yl (NBD))-phosphatidylserine (#810198, Avanti Polar Lipids):[…] (#810150, Avanti Polar Lipids) = 62:35:1.5:1.5 (molar ratio)] was used for the preparation of fluorescent liposomes in the same manner as above. The prepared liposomes were then mixed with VAMP2 for 15 min at room temperature. The liposome/protein mixture was diluted twice to bring the concentration of n-octyl glucoside (O8001, Sigma-Aldrich) below the critical micelle concentration. After overnight dialysis against 1L dialysis buffer at 4°C to remove the detergent, SM-2 bio-beads (#1523920, Bio-Rad Laboratories, Hercules, CA, USA) were added to the sample to remove any remaining n-octyl glucoside. The solution was then centrifuged at 10,000 × g to remove the protein/lipid aggregates, and the final lipid concentrations of both the T- and V-liposomes were adjusted to 1 mM with a lipid-to-protein ratio of 50:1.
# A total lipid mixing assay using the T- and V-liposomes was performed as described previously with minor modifications ([8]). […] The fusion was monitored using the dequenching of NBD fluorescence signal (excitation 465 nm/emission 530 nm). After at least 80 min of fusion, the maximum NBD signal was obtained by adding 0.1% Triton X-100™. All the lipid-mixing experiments were performed at 37°C.
# [2] = biological target: T2, SN23-Syn4-Vp8 SNARE complex (Rattus norvegicus, UniProt O70377+Q08850+Q9WUF4); test: as above; format: biochemical; conditions: peptide added after preincubation of T- and V-liposomes at 4°C overnight (partially zippered SNAREs) (Figure 4A)
# T2 construct: Syn4 (amino acids 1–298); SNAP-23 (amino acids 1–210); VAMP8 (amino acids 1–100); GST (N, cleaved yes); made in house; host or cells: Escherichia coli Rosetta(DE3)pLysS
# T2 sequence (Q08850 1-298): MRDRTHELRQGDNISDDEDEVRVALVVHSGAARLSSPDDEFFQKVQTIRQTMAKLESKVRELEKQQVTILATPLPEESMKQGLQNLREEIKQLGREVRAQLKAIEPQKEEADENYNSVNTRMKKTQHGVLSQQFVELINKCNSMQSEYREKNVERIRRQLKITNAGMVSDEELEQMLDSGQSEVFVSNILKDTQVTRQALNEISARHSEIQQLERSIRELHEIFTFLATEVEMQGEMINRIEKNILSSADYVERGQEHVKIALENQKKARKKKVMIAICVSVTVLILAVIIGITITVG
# T2 sequence (O70377 1-210): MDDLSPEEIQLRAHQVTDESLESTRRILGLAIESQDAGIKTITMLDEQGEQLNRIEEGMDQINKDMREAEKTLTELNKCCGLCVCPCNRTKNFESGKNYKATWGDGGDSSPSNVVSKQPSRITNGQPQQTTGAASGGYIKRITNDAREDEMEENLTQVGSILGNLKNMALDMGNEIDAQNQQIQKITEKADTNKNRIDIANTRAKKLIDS
# T2 sequence (Q9WUF4 1-100): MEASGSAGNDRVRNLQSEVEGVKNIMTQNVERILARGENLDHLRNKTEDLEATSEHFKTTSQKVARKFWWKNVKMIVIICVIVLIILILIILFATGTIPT
# RBL-2H3 mast cells [3] = test: Degranulation assay, β-hexosaminidase release; format: cell-based, rat; conditions: for inhibition of mast cell degranulation with versus without A23187 pretreatment: PTD-conjugated peptides, read-outs β-hexosaminidase and histamine (Figure 4B); for reduction of β-hexosaminidase release: 10 µM PTD-fused peptide without SLO (LY294002 as positive control), DNP-BSA stimulation, no A23187 pretreatment, three independent experiments (Figure 2A gray bars, 2C); for inhibition of β-hexosaminidase release after A23187 pretreatment: cells pretreated with A23187, sensitized with DNP-IgE, then PTD-conjugated peptide (Figure 4B)
# RBL-2H3 mast cells [4] = test: Degranulation assay, histamine release (enzyme immunoassay); format: cell-based, rat; conditions: for inhibition of histamine release: PTD-conjugated peptide without SLO (LY294002 as positive control), DNP-IgE sensitized, DNP-BSA stimulation, no A23187 pretreatment, three independent experiments (Figure 2C); for inhibition of histamine release after A23187 pretreatment: cells pretreated with A23187, sensitized with DNP-IgE, then PTD-conjugated peptide (Figure 4B)
Sequence,inhibition of membrane fusion (lipid mixing) [1],"inhibition of membrane fusion, peptide added after preincubation [1]","inhibition of membrane fusion, peptide added before preincubation [1]","inhibition of membrane fusion, peptide added after preincubation [2]",inhibition of mast cell degranulation with versus without A23187 pretreatment (RBL-2H3 mast cells [3]),reduction of β-hexosaminidase release (RBL-2H3 mast cells [3]),inhibition of β-hexosaminidase release after A23187 pretreatment (RBL-2H3 mast cells [3]),inhibition of histamine release (RBL-2H3 mast cells [4]),inhibition of histamine release after A23187 pretreatment (RBL-2H3 mast cells [4])
"EDEMEENLTQVGSILGN [SC23N, 17-mer peptide, N-terminal region of SNAP-23 SNARE motif SC23]",inhibited membrane fusion by both the SN23-Syn4-Vp2 and SN23-Syn4-Vp8 complexes,inhibitory activities significantly diminished,inhibited the membrane fusion induced by both SN23-Syn4-Vp2 and SN23-Syn4-Vp8,inhibitory activities significantly diminished,inhibited mast cell degranulation more efficiently than without pretreatment,,,,
"LQSEVEGVKNIMTQNVE [Vp8N, 17-mer peptide, N-terminal region of VAMP8 SNARE motif]",,,,inhibitory activities significantly diminished,inhibited mast cell degranulation more efficiently than without pretreatment,30–40%,inhibited both histamine and β-hexosaminidase release,almost equally inhibited the release of both β-hexosaminidase and histamine,inhibited both histamine and β-hexosaminidase release
"SARHSEIQQLERTIREL [Syn4N, 17-mer peptide, N-terminal region of syntaxin 4 SNARE motif]",inhibited membrane fusion by both the SN23-Syn4-Vp2 and SN23-Syn4-Vp8 complexes,inhibitory activities significantly diminished,inhibited the membrane fusion induced by both SN23-Syn4-Vp2 and SN23-Syn4-Vp8,inhibitory activities significantly diminished,inhibited mast cell degranulation more efficiently than without pretreatment,30–40%,inhibited both histamine and β-hexosaminidase release,almost equally inhibited the release of both β-hexosaminidase and histamine,inhibited both histamine and β-hexosaminidase release
